Test results reported in patent publication US20210046139A1, “VEGETATION WATERS AND USES THEREOF” (FATTORIA LA VIALLA DI GIANNI, ANTONIO E BANDINO LO FRANCO - …, priority 2018, published 2021).

What was measured:
Type in all cases: in vivo, Sprague-Dawley rats
[1] = test system: STZ diabetic rats; assay: Eye examination and cataract classification
Text: (§1) A well-established model of streptozotocin (STZ)-induced diabetes in rats was used. Streptozotocin is a glucosamine derivative of nitrosurea which selectively destroys the β cells of the pancreatic islets and causes the development of diabetes with hyperglycemia and glycosuria. The model shares a series of characteristics with human diabetic complications at both a functional level and a biochemical level, such as, for example, a reduced nervous conduction, loss of small-diameter sensory nerve fibers in the skin, reduction in Na+ and K+-ATPase activity and early alterations of the thermal and mechanical nociceptive thresholds. In this study, diabetes was induced in 24 rats with a single intraperitoneal injection of 60 mg/kg of STZ dissolved in a sodium citrate buffer (pH 4.5). 24 rats injected only with the vehicle were used as non-diabetic controls. Hyperglycemia was confirmed by measuring glycosuria 72 hours after the injection of STZ using Keto-Diabur strips (KD-5000; Roche Diagnostics Spa, Italy). Only the animals with glycosuria >5% were classified as diabetic and included in the study. […] The animals were then randomized to receive the concentrate of the invention at an HT equivalent dose of 50 mg/kg/day or 50 mg/kg/day of pure HT in drinking water, according to the following treatment groups: The opacity of the eyes and of the crystalline lenses was examined every week starting from the seventh/eighth week after the induction of diabetes, the period in which, in the STZ diabetic model, cataracts manifest themselves. Cataract severity was classified using a validated semi-quantitative scale. In particular, the following assessment scheme and the following scores were used: [table] The opacity index was calculated to quantitatively assess the degree of opacity of the crystalline lens by means of the following formula: [formula]

[2] = test system: STZ diabetic rats; assay: Motor and sensory nerve conduction velocity (tail, sciatic nerve); conditions: end of administration (week 12), mean ± S.E.; for Conduction of sciatic nerve: sciatic motor NCV; for Sensitivity of sciatic nerve: sciatic sensory NCV; for Conduction of tail: tail motor NCV; for Sensitivity of tail: tail sensory NCV
Text: A well-established model of streptozotocin (STZ)-induced diabetes in rats was used. Streptozotocin is a glucosamine derivative of nitrosurea which selectively destroys the β cells of the pancreatic islets and causes the development of diabetes with hyperglycemia and glycosuria. The model shares a series of characteristics with human diabetic complications at both a functional level and a biochemical level, such as, for example, a reduced nervous conduction, loss of small-diameter sensory nerve fibers in the skin, reduction in Na+ and K+-ATPase activity and early alterations of the thermal and mechanical nociceptive thresholds. In this study, diabetes was induced in 24 rats with a single intraperitoneal injection of 60 mg/kg of STZ dissolved in a sodium citrate buffer (pH 4.5). 24 rats injected only with the vehicle were used as non-diabetic controls. Hyperglycemia was confirmed by measuring glycosuria 72 hours after the injection of STZ using Keto-Diabur strips (KD-5000; Roche Diagnostics Spa, Italy). Only the animals with glycosuria >5% were classified as diabetic and included in the study. […] The animals were then randomized to receive the concentrate of the invention at an HT equivalent dose of 50 mg/kg/day or 50 mg/kg/day of pure HT in drinking water, according to the following treatment groups: The electrophysiological studies were performed using a portable electromyograph (Alpine Biomed ApS DK-2740, Denmark). The test on sciatic nerve conduction was performed by stimulating the sciatic nerve in the Achilles tendons and in the hollow above the sciatic nerve at the point of attachment of the tail with a single 2.2 ms supramaximal pulse using a bipolar electrode. A measurement of the motor action potential (CMAP) was obtained by placing the active electrode in subcutaneous tissue, in the first interosseous muscle of a toe of the hind paw, and the reference electrode in the fourth interosseous muscle of the same paw. The motor conduction velocity was calculated by subtracting the distal value from the proximal value taking the latency of the first negative peak of the proximal CMAP, measured in milliseconds, and the difference was […] the distance between the two stimulating electrodes, measured in millimeters. The sensory conduction velocity was determined using the plantar nerve. The sensory nerve action potential (SNAP) of the plantar nerve was measured by placing the recording electrode (needle) in subcutaneous tissue at the level of the […] next to the medial malleolus and the reference electrode proximally at about 1 cm. Circular stimulation electrodes were placed in the middle of the three middle toes of the hind paw, and stimulation was performed with a square pulse wave lasting 0.05 ms, with a barely supramaximal current intensity stimulus. The sensory conduction velocity was calculated by measuring the latency at the negative deviation of the peak potential and the distance between the stimulation electrode and the recording electrode. The motor and sensory conduction velocities are expressed as meters per second. The tail motor and sensory conduction test requires that the sensory nerve of the tail be stimulated by inserting the cathode 2 cm from the tip of the tail and the anode at 1 cm distally, using a square wave pulse lasting 0.05-ms at a supramaximal intensity. The SNAPs were recorded by inserting the active electrode 5 cm from the cathode and the reference electrode at 1 cm more proximally. The sensory nerve conduction velocity was calculated by measuring the latency at the peak of the first negative deflection and the distance between the stimulating and recording electrodes. The tail motor nerve conduction was obtained using a bipolar recording configuration. The active electrode was positioned 2 cm from the tip of the tail and the reference electrode at 1 cm distally. The motor nerve of the tail was initially stimulated at 5 cm proximally from the active recording electrode and, subsequently, proximally at 10 cm. […]

[3] = test system: STZ diabetic rats; assay: Mechanical nociceptive threshold (Randall-Selitto test); conditions: non-diabetic rats
Text: as §1, with “Italy).” for “Italy). Only the animals with glycosuria >5% were classified as diabetic and included in the study.”, “mechanical nociceptive threshold (Randall-Selitto test)” for “opacity of the eyes and of the crystalline lenses”, “assessed” for “examined every week starting from the seventh/eighth week after the induction of diabetes, the period in which, in the STZ diabetic model, cataracts manifest themselves. Cataract severity was classified”, “an electromechanical apparatus (Ugo Basile, Varese, Italy). […]” for “a validated semi-quantitative scale. In particular, the following assessment scheme and the following scores were used: [table] The opacity index was calculated to quantitatively assess the degree of opacity of the crystalline lens by means of the following formula: [formula]”

[4] = non-diabetic control rats (CTRL)

OCCc1ccc(O)c(O)c1 [HT, hydroxytyrosol]
diabetic rats in the fourth cataract phase ([1]; end of the fifth week, untreated 67%): 30% | eyes with cataracts at stage 0 ([1]; end of the treatments, untreated none): 3 eyes | opacity index ([1]; end of treatment, untreated 5.3): 2.0 | Conduction of sciatic nerve ([2]; STZ diabetic rats): 40.3 ± 0.7 m/sec. | Conduction of sciatic nerve [2, 4]: 46.5 ± 1.5 m/sec. | Sensitivity of sciatic nerve ([2]; STZ diabetic rats): 33.7 ± 0.9 m/sec. | Sensitivity of sciatic nerve [2, 4]: 39.0 ± 0.9 m/sec. | Conduction of tail ([2]; STZ diabetic rats): 37.4 ± 0.9 m/sec. | Conduction of tail [2, 4]: 36.1 ± 1.7 m/sec. | Sensitivity of tail ([2]; STZ diabetic rats): 30.8 ± 0.8 m/sec. | Sensitivity of tail [2, 4]: 34.7 ± 1.3 m/sec. | effect on mechanical nociceptive threshold [3]: no effect
